Experimental data published in publication PMC6268995, “(E)-5-Styryl-1H-indole and (E)-6-Styrylquinoline Derivatives Serve as Probes for β-Amyloid Plaques” (Molecules, 2012).
“Also recorded” adds a separate entry of the source. Read-outs that look alike come from different tables or passages of the source. Blank lines part the entries; values can stand above or below the compound they belong to.

How the values were obtained:
Aβ1–40 aggregates = target: T1, Aβ1–40 aggregates (Homo sapiens, UniProt P05067); experiment: Competition binding assay on Aβ1–40 aggregates using [125I]TZDM as radio-ligand; conditions: Aβ1–40 aggregates against [125I]TZDM; triplicate, mean ± SD
T1 construct: β-amyloid(1–40) were purchased from AnaSpec; purchased AnaSpec (San Jose, CA, USA)
T1 sequence (P05067 672-711 limits assumed): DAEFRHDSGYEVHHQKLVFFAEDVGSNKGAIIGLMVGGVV
Description: The lyophilized white powder of β-amyloid(1–40) were purchased from AnaSpec (San Jose, CA, USA). After reconstituted by adding basic buffer (1% NH4OH. 60–70 μL) to β-amyloid (1–40) (1 mg) aggregation of Aβ1–40 was carried out by gently dissolving Aβ1–40 (0.25 mg/mL) in a PBS buffer (pH 7.4). The solution was incubated at 37 °C for 72 h with gentle and constant shaking. Binding studies were carried out according to the procedure described previously with some modifications using [^125I]TZDM as the radiolabeled standard. […] The mixture was incubated at 37 °C for 2 h. […] Filters containing the bound ^125I ligand were counted in a γ-counter (WALLAC Wizard 1470, PerkinElmer Life Sciences, Waltham, MA, USA) with 75% counting efﬁciency. The IC50 values were determined using GraphPad Prism 5.0, and those for the inhibition constant (Ki) were calculated using the Cheng Prusoff equation: Ki = IC50/(1 + [L]/Kd).

Aβ plaques = Aβ plaques (Homo sapiens, UniProt P05067); experiment: In vitro fluorescent staining of amyloid plaques in brain sections from transgenic mouse; format: binding, transgenic model mouse (APP/PS1); conditions: brain sections 8 µm, APP/PS1, 12 months, male; 1 µM
Chain of Aβ plaques (P05067 672-711 limits assumed): as above
Description: Parafﬁn-embedded brain sections of transgenic model mouse (8 µm, APP/PS1, 12 months, male) were used for the in vitro fluorescent staining of amyloid plaques. The brain sections were deparafﬁnized with xylene, ethanol and distilled water. After immersion in PBS (0.02 M, pH 7.4) for 30 min, the brain sections were incubated with 20% ethanol solution (1 µM) of compound 8 for 10 min. The localization of plaques was confirmed by staining with thioﬂavin-S on the adjacent sections. Finally, the sections were washed with 40% ethanol and PBS (0.02 M, pH 7.4). Fluorescent observation was performed by a Stereo Discovery V12 instrument (Zeiss, Oberkochen, Germany) equipped with a LP 505 filter set (excitation, 405 nm).

[1] = parameters: method as in PMID 12519062; conditions: normal mice, cited from earlier work
[2] = Partition coefficient determination (n-octanol/PBS); format: physicochemical; conditions: n-octanol / PBS 0.02 M, pH 7.4
Description: The determination of partition coefﬁcients of [^125I]8 and [^125I]17 was performed according to the procedure previously reported with some modifications. Ligand [^125I]8 or [^125I]17 (~5 μCi) was mixed with 3 mL each of n-octanol and PBS (0.02 M, pH 7.4) in a test tube. The test tube was vortexed for 5 min at room temperature, followed by centrifugation for 10 min at 3,000 rpm. Two weighed samples from the n-octanol (50 µL) and buffer layers (400 µL) were counted in a γ-counter. The partition coefﬁcient was expressed as the logarithm of the ratio of the counts per gram from n-octanol versus that of PBS. Samples from the n-octanol layer were repartitioned until consistent partition coefﬁcient values were obtained. The measurements were done in triplicate and repeated three times.

[3] = In vivo biodistribution in normal mice; parameters: species or system KunMing normal mice; conditions: iv injection
Description: In vivo biodistribution studies were performed in KunMing normal mice (female, average weight 18–22 g) and in accordance with the national laws related to the care and experiments on laboratory animal. A saline solution (100 µL) containing [^125I]8 or [^125I]17 (1 µCi) was injected directly into the tail vein of mice. The mice (n = 5 for each time point) were sacriﬁced at designated time points post-injection. The organs of interest were removed and weighed, and the radioactivity was counted with an automatic γ-counter (WALLAC Wizard 1470).

Ki (Aβ1–40 aggregates): 25.1 ± 2.1 nM | melting point: 162 to 163 °C
Compound: C(=C\c1ccc2[nH]ccc2c1)/c1ccccc1 [Compound 4, (E)-5-Styryl-1H-indole]

Ki (Aβ1–40 aggregates): 89.3 ± 2.6 nM
Compound: Fc1ccc(/C=C/c2ccc3[nH]ccc3c2)cc1 [Compound 5, (E)-5-(4-Fluorostyryl)-1H-indole]

Ki (Aβ1–40 aggregates): 51.5 ± 1 nM
Compound: Clc1ccc(/C=C/c2ccc3[nH]ccc3c2)cc1 [Compound 6, (E)-5-(4-Chlorostyryl)-1H-indole]

Ki (Aβ1–40 aggregates): 16.3 ± 1.7 nM | melting point: 215 to 216 °C
Compound: Brc1ccc(/C=C/c2ccc3[nH]ccc3c2)cc1 [Compound 7, (E)-5-(4-Bromostyryl)-1H-indole]

Ki (Aβ1–40 aggregates): 4.1 ± 0.2 nM | melting point: 211 to 212 °C
Compound: Ic1ccc(/C=C/c2ccc3[nH]ccc3c2)cc1 [Compound 8, (E)-5-(4-Iodostyryl)-1H-indole]
Fluorescent staining of Aβ plaques (Aβ plaques): specific binding to Aβplaques; also recorded: clearly stained Aβ plaques

Ki (Aβ1–40 aggregates): 32.4 ± 1.9 nM
Compound: COc1ccc(/C=C/c2ccc3[nH]ccc3c2)cc1 [Compound 10, (E)-5-(4-Methoxystyryl)-1H-indole]

Ki (Aβ1–40 aggregates): 270.4 ± 1.5 nM
Compound: Fc1ccc(/C=C/c2ccc3ncccc3c2)cc1 [Compound 14, (E)-6-(4-Fluorostyryl)quinoline]

Ki (Aβ1–40 aggregates): 45 ± 1.3 nM
Compound: Clc1ccc(/C=C/c2ccc3ncccc3c2)cc1 [Compound 15, (E)-6-(4-Chlorostyryl)quinoline]

Ki (Aβ1–40 aggregates): 23.5 ± 1.3 nM
Compound: Brc1ccc(/C=C/c2ccc3ncccc3c2)cc1 [Compound 16, (E)-6-(4-Bromostyryl)quinoline]

Ki (Aβ1–40 aggregates): 8.6 ± 1.2 nM | melting point: 173 to 174 °C
Compound: Ic1ccc(/C=C/c2ccc3ncccc3c2)cc1 [Compound 17, (E)-6-(4-Iodostyryl)quinoline]

Ki (Aβ1–40 aggregates): 288.4 ± 1.3 nM
Compound: Cc1ccc(/C=C/c2ccc3ncccc3c2)cc1 [Compound 18, (E)-6-(4-Methylstyryl)quinoline]

Compound: CN(C)c1ccc(-c2cn3cc([123I])ccc3n2)cc1 [[^123I]IMPY]
brain uptake ([1]; 2 min postinjection ref 16): 2.88 % ID/organ | brain uptake ([1]; 60 min postinjection ref 16): 0.21 % ID/organ | brain2min/brain60min ratio ([1]; from literature values ref 16): 13.7

logD [2]: 2.73 | Biodistribution Blood ([3]; 2 min): 11.39 ± 1.56 % ID/g | Biodistribution Brain ([3]; 2 min): 2.05 ± 0.25 % ID/g | Biodistribution Heart ([3]; 2 min): 7.70 ± 0.86 % ID/g | Biodistribution Kidney ([3]; 2 min): 15.01 ± 1.56 % ID/g | Biodistribution Liver ([3]; 2 min): 22.45 ± 1.79 % ID/g | Biodistribution Lung ([3]; 2 min): 13.56 ± 1.71 % ID/g | Biodistribution Muscle ([3]; 2 min): 2.78 ± 0.42 % ID/g | Biodistribution Spleen ([3]; 2 min): 5.88 ± 0.30 % ID/g | Biodistribution Stomach ([3]; 2 min): 4.05 ± 0.09 % ID/organ | Biodistribution Blood ([3]; 15 min): 6.31 ± 0.51 % ID/g | Biodistribution Brain ([3]; 15 min): 1.18 ± 0.17 % ID/g | Biodistribution Heart ([3]; 15 min): 3.80 ± 0.12 % ID/g | Biodistribution Kidney ([3]; 15 min): 7.47 ± 1.01 % ID/g | Biodistribution Liver ([3]; 15 min): 9.95 ± 0.18 % ID/g | Biodistribution Lung ([3]; 15 min): 6.42 ± 0.47 % ID/g | Biodistribution Muscle ([3]; 15 min): 1.68 ± 0.20 % ID/g | Biodistribution Spleen ([3]; 15 min): 5.91 ± 0.58 % ID/g | Biodistribution Stomach ([3]; 15 min): 15.84 ± 0.78 % ID/organ | Biodistribution Blood ([3]; 30 min): 5.80 ± 0.37 % ID/g | Biodistribution Brain ([3]; 30 min): 0.93 ± 0.13 % ID/g | Biodistribution Heart ([3]; 30 min): 3.21 ± 0.11 % ID/g | Biodistribution Kidney ([3]; 30 min): 6.57 ± 0.50 % ID/g | Biodistribution Liver ([3]; 30 min): 9.12 ± 0.53 % ID/g | Biodistribution Lung ([3]; 30 min): 5.64 ± 0.41 % ID/g | Biodistribution Muscle ([3]; 30 min): 2.30 ± 0.32 % ID/g | Biodistribution Spleen ([3]; 30 min): 4.66 ± 0.52 % ID/g | Biodistribution Stomach ([3]; 30 min): 8.11 ± 1.21 % ID/organ | Biodistribution Blood ([3]; 60 min): 3.86 ± 0.74 % ID/g | Biodistribution Brain ([3]; 60 min): 0.55 ± 0.11 % ID/g | Biodistribution Heart ([3]; 60 min): 2.55 ± 0.21 % ID/g | Biodistribution Kidney ([3]; 60 min): 4.72 ± 0.69 % ID/g | Biodistribution Liver ([3]; 60 min): 6.97 ± 0.28 % ID/g | Biodistribution Lung ([3]; 60 min): 4.55 ± 0.49 % ID/g | Biodistribution Muscle ([3]; 60 min): 1.40 ± 0.34 % ID/g | Biodistribution Spleen ([3]; 60 min): 4.71 ± 0.97 % ID/g | Biodistribution Stomach ([3]; 60 min): 6.75 ± 0.43 % ID/organ | Biodistribution Blood ([3]; 120 min): 1.97 ± 0.35 % ID/g | Biodistribution Brain ([3]; 120 min): 0.26 ± 0.03 % ID/g | Biodistribution Heart ([3]; 120 min): 1.33 ± 0.06 % ID/g | Biodistribution Kidney ([3]; 120 min): 2.20 ± 0.34 % ID/g | Biodistribution Liver ([3]; 120 min): 3.93 ± 0.46 % ID/g | Biodistribution Lung ([3]; 120 min): 2.01 ± 0.18 % ID/g | Biodistribution Muscle ([3]; 120 min): 0.72 ± 0.21 % ID/g | Biodistribution Spleen ([3]; 120 min): 2.25 ± 0.36 % ID/g | Biodistribution Stomach ([3]; 120 min): 11.12 ± 2.48 % ID/organ | Biodistribution Blood ([3]; 240 min): 1.38 ± 0.24 % ID/g | Biodistribution Brain ([3]; 240 min): 0.14 ± 0.02 % ID/g | Biodistribution Heart ([3]; 240 min): 0.80 ± 0.19 % ID/g | Biodistribution Kidney ([3]; 240 min): 1.64 ± 0.23 % ID/g | Biodistribution Liver ([3]; 240 min): 2.96 ± 0.28 % ID/g | Biodistribution Lung ([3]; 240 min): 1.43 ± 0.28 % ID/g | Biodistribution Muscle ([3]; 240 min): 0.61 ± 0.08 % ID/g | Biodistribution Spleen ([3]; 240 min): 1.59 ± 0.17 % ID/g | Biodistribution Stomach ([3]; 240 min): 7.03 ± 1.51 % ID/organ
Compound: [125I]c1ccc(/C=C/c2ccc3ncccc3c2)cc1 [[^125I]17]

Compound: (E)-5-(4-Methoxystyryl)-1H-indole [Compound 9]
Ki (Aβ1–40 aggregates): 15.8 ± 1.5 nM
